Data reported in patent US11866518B2, “Bicyclic peptide ligands specific for TSLP” (BicycleTx Limited, priority 2020, dated 2024).
Each block holds one compound with its values, some of them ahead of it. *1 amine or outer side, *2 acyl side, *3 side chain or, on linkers, in order; H or OH if unused. Where a SMILES comes first, the peptide text is derived from it. Bridges are numbered along the chain shown (N, C = ends). [ ]: non-standard residue; d: D form. TATA = O=C(CC[*:1])N1CN(C(=O)CC[*:2])CN(C(=O)CC[*:3])C1; Orn = NCCC[C@H](N)C(=O)O

Molecular target: TSLP (Homo sapiens, UniProt Q969D9)
Assay: Human TSLP Surface Plasmon Resonance (SPR) binding assay
Set-up: The resulting construct spCD33-6×HN-TEV-hTSLP(29-159)-Avi; 6xHN tag with TEV site (N, cleaved yes); made in house; host or cells: Expi293F cells
Conditions: biotinylated human TSLP immobilized on streptavidin chip; 20° C.; steady-state or kinetic 1:1 fit; read-out: hTSLP SPR Kd

TSLP, sequence (Q969D9 29-159): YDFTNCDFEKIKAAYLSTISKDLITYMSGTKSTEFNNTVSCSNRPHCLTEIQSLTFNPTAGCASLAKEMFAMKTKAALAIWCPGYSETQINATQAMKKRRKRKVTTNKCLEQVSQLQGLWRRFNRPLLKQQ

SMILES: CC(C)C[C@@H]1NC(=O)[C@H](Cc2c[nH]c3ccccc23)NC(=O)[C@H](Cc2c[nH]c3ccccc23)NC(=O)[C@H](CO)NC(=O)[C@H](CO)NC(=O)[C@@H]2CSCCC(=O)N3CN(CN(C3)C(=O)CCSC[C@@H](C(=O)N[C@@H](CCCCN)C(=O)N3CCC[C@H]3C(=O)N[C@@H](CC(=O)O)C(=O)N[C@@H](Cc3c[nH]cn3)C(=O)N[C@H](C(=O)N[C@@H](CC(=O)O)C(=O)N[C@@H](C)C(N)=O)C(C)C)NC1=O)C(=O)CCSC[C@H](NC(=O)[C@H](C)N)C(=O)N[C@@H](CCCNC(=N)N)C(=O)N[C@@H](CC(=O)O)C(=O)N[C@@H](CC(C)C)C(=O)N[C@@H](CC(=O)O)C(=O)N1CCC[C@H]1C(=O)N[C@@H](Cc1c[nH]c3ccccc13)C(=O)N[C@@H]([C@@H](C)O)C(=O)N2 [Example 177, A-(SEQ ID NO: 122)-KPDHVDA]
Kd: 580 nM

SMILES: CC(C)C[C@@H]1NC(=O)[C@H](Cc2c[nH]c3ccccc23)NC(=O)[C@H](Cc2c[nH]c3ccccc23)NC(=O)[C@H]([C@@H](C)O)NC(=O)[C@H](CCC(=O)O)NC(=O)[C@@H]2CSCCC(=O)N3CN(CN(C3)C(=O)CCSC[C@H](N)C(=O)N[C@@H](CCCCN)C(=O)N[C@@H](CCC(=O)O)C(=O)N[C@@H](CC(C)C)C(=O)N[C@@H](CC(=O)O)C(=O)N3CCC[C@H]3C(=O)N[C@@H](Cc3c[nH]c4ccccc34)C(=O)N[C@@H]([C@@H](C)O)C(=O)N2)C(=O)CCSC[C@@H](C(N)=O)NC1=O [Example 179, (SEQ ID NO: 130)] (H-CKELDPWTCETWWLC-NH2; linker 1-9-15 via TATA)
Kd: 360 nM

SMILES: CC(C)C[C@@H]1NC(=O)[C@H](Cc2c[nH]c3ccccc23)NC(=O)[C@H](Cc2c[nH]c3ccccc23)NC(=O)[C@H]([C@@H](C)O)NC(=O)[C@H](CCC(=O)O)NC(=O)[C@@H]2CSCCC(=O)N3CN(CN(C3)C(=O)CCSC[C@H](N)C(=O)N[C@@H](CCCN)C(=O)N[C@@H](CCC(=O)O)C(=O)N[C@@H](CC(C)C)C(=O)N[C@@H](CC(=O)O)C(=O)N3CCC[C@H]3C(=O)N[C@@H](Cc3c[nH]c4ccccc34)C(=O)N[C@@H]([C@@H](C)O)C(=O)N2)C(=O)CCSC[C@@H](C(N)=O)NC1=O [Example 180, (SEQ ID NO: 131)] (H-C[Orn]ELDPWTCETWWLC-NH2; linker 1-9-15 via TATA; N-terminus and C-terminus assumed)
Kd: 300 nM

SMILES: CC(C)C[C@@H]1NC(=O)[C@H](Cc2c[nH]c3ccccc23)NC(=O)[C@H](Cc2c[nH]c3ccccc23)NC(=O)[C@H]([C@@H](C)O)NC(=O)[C@H](CCC(=O)O)NC(=O)[C@@H]2CSCCC(=O)N3CN(CN(C3)C(=O)CCSC[C@H](N)C(=O)N[C@@H](CCC(N)=O)C(=O)N[C@@H](CCC(=O)O)C(=O)N[C@@H](CC(C)C)C(=O)N[C@@H](CC(=O)O)C(=O)N3CCC[C@H]3C(=O)N[C@@H](Cc3c[nH]c4ccccc34)C(=O)N[C@@H]([C@@H](C)O)C(=O)N2)C(=O)CCSC[C@@H](C(N)=O)NC1=O [Example 181, (SEQ ID NO: 132)] (H-CQELDPWTCETWWLC-NH2; linker 1-9-15 via TATA; N-terminus and C-terminus assumed)
Kd: 310 nM

SMILES: CC(C)C[C@@H]1NC(=O)[C@H](Cc2c[nH]c3ccccc23)NC(=O)[C@H](Cc2c[nH]c3ccccc23)NC(=O)[C@H]([C@@H](C)O)NC(=O)[C@H](CCC(=O)O)NC(=O)[C@@H]2CSCCC(=O)N3CN(CN(C3)C(=O)CCSC[C@H](N)C(=O)N[C@@H]([C@@H](C)O)C(=O)N[C@@H](CCC(=O)O)C(=O)N[C@@H](CC(C)C)C(=O)N[C@@H](CC(=O)O)C(=O)N3CC(F)(F)C[C@H]3C(=O)N[C@@H](Cc3c[nH]c4ccccc34)C(=O)N[C@@H]([C@@H](C)O)C(=O)N2)C(=O)CCSC[C@@H](C(N)=O)NC1=O [Example 182, (SEQ ID NO: 133)]
Kd: 1300 nM

SMILES: CC(C)C[C@@H]1NC(=O)[C@H](Cc2c[nH]c3ccccc23)NC(=O)[C@H](Cc2c[nH]c3ccccc23)NC(=O)[C@H](CC(=O)O)NC(=O)[C@H](CCC(=O)O)NC(=O)[C@@H]2CSCCC(=O)N3CN(CN(C3)C(=O)CCSC[C@@H](C(=O)N[C@@H](C)C(N)=O)NC1=O)C(=O)CCSC[C@H](NC(=O)[C@H](C)N)C(=O)N[C@@H](C(C)C)C(=O)N[C@@H](CC(=O)O)C(=O)N[C@@H](CC(C)C)C(=O)N[C@@H](CC(=O)O)C(=O)N1CCC[C@H]1C(=O)N[C@@H](Cc1c[nH]c3ccccc13)C(=O)N[C@@H](CO)C(=O)N2 [Example 183, A-(SEQ ID NO: 134)-A] (H-ACVDLDPWSCEDWWLCA-NH2; linker 2-10-16 via TATA; N-terminus and C-terminus assumed)
Kd: 330 nM

SMILES: CC(C)C[C@@H]1NC(=O)[C@H](Cc2c[nH]c3ccccc23)NC(=O)[C@H](Cc2c[nH]c3ccccc23)NC(=O)[C@H]([C@@H](C)O)NC(=O)[C@H](CCC(=O)O)NC(=O)[C@@H]2CSCCC(=O)N3CN(CN(C3)C(=O)CCSC[C@H](N)C(=O)N[C@@H]([C@@H](C)O)C(=O)N[C@@H](CCC(=O)O)C(=O)N[C@@H](CC(C)C)C(=O)N[C@@H](CC(=O)O)C(=O)N3CCC[C@H]3C(=O)N[C@@H](Cc3c[nH]c4ccccc34)C(=O)N[C@@H]([C@@H](C)O)C(=O)N2)C(=O)CCSC[C@@H](C(N)=O)NC1=O [Example 185, (SEQ ID NO: 121)]
Kd: 260 nM

Kd: 310 nM
SMILES: CC(C)C[C@@H]1NC(=O)[C@H](Cc2c[nH]c3ccccc23)NC(=O)[C@H](Cc2c[nH]c3ccccc23)NC(=O)[C@H](CC(=O)O)NC(=O)[C@@H]2CCCN2C(=O)[C@@H]2CSCCC(=O)N3CN(CN(C3)C(=O)CCSC[C@H](NC(=O)[C@H](CC(C)C)NC(=O)[C@H](CC(=O)O)NC(=O)[C@@H](N)CCCNC(=N)N)C(=O)N[C@@H]([C@@H](C)O)C(=O)N[C@@H](CC(=O)O)C(=O)N[C@@H](CC(C)C)C(=O)N[C@@H](CC(=O)O)C(=O)N3CCC[C@H]3C(=O)N[C@@H](Cc3c[nH]c4ccccc34)C(=O)N[C@@H]([C@@H](C)O)C(=O)N2)C(=O)CCSC[C@@H](C(=O)N[C@@H](C)C(N)=O)NC1=O [Example 189, RDL-(SEQ ID NO: 138)-A] (H-RDLCTDLDPWTCPDWWLCA-NH2; linker 4-12-18 via TATA; N-terminus and C-terminus assumed)

SMILES: CC(C)C[C@@H]1NC(=O)[C@H](Cc2c[nH]c3ccccc23)NC(=O)[C@H](Cc2c[nH]c3ccccc23)NC(=O)[C@H](CO)NC(=O)[C@H](CO)NC(=O)[C@@H]2CSCCC(=O)N3CN(CN(C3)C(=O)CCSC[C@H](NC(=O)[C@H](CCC(N)=O)NC(=O)[C@H](Cc3c[nH]cn3)NC(=O)[C@@H](NC(=O)[C@H](CC(N)=O)NC(=O)[C@@H](NC(=O)[C@@H](N)CCCNC(=N)N)C(C)C)[C@@H](C)O)C(=O)N[C@@H](CCCNC(=N)N)C(=O)N[C@@H](CC(=O)O)C(=O)N[C@@H](CC(C)C)C(=O)N[C@@H](CC(=O)O)C(=O)N3CCC[C@H]3C(=O)N[C@@H](Cc3c[nH]c4ccccc34)C(=O)N[C@@H]([C@@H](C)O)C(=O)N2)C(=O)CCSC[C@@H](C(=O)N[C@@H](C)C(N)=O)NC1=O [Example 190, RVNTHQ-(SEQ ID NO: 122)-A]
Kd: 81 nM

SMILES: CC(C)C[C@@H]1NC(=O)[C@H](Cc2c[nH]c3ccccc23)NC(=O)[C@@H]2CSCCC(=O)N3CN(CN(C3)C(=O)CCSC[C@@H](C(=O)N[C@@H](C)C(N)=O)NC(=O)[C@@H]3CCCN3C1=O)C(=O)CCSC[C@H](NC(=O)[C@H](C)N)C(=O)N[C@@H](CC(=O)O)C(=O)N[C@@H](Cc1c[nH]c3ccccc13)C(=O)N[C@@H](CCC(N)=O)C(=O)N[C@@H](Cc1c[nH]c3ccccc13)C(=O)N[C@@H](CO)C(=O)N[C@@H](Cc1ccc(O)cc1)C(=O)N[C@@H](CC(=O)O)C(=O)N2 [Example 196, A-(SEQ ID NO: 141)-A] (H-ACDWQWSYDCWLPCA-NH2; linker 2-10-14 via TATA; N-terminus assumed)
Kd: 6100 nM

SMILES: CC(C)C[C@@H]1NC(=O)[C@H](Cc2c[nH]c3ccccc23)NC(=O)[C@@H]2CSCCC(=O)N3CN(CN(C3)C(=O)CCSC[C@@H](C(=O)N[C@@H](C)C(N)=O)NC(=O)[C@@H]3CCCN3C1=O)C(=O)CCSC[C@H](NC(=O)[C@H](C)N)C(=O)N[C@@H](CC(=O)O)C(=O)N[C@@H](Cc1c[nH]c3ccccc13)C(=O)N[C@@H](C(C)C)C(=O)N[C@@H](Cc1c[nH]c3ccccc13)C(=O)N[C@@H](CCC(=O)O)C(=O)N[C@@H](Cc1ccc(O)cc1)C(=O)N[C@@H](CC(=O)O)C(=O)N2 [Example 197, A-(SEQ ID NO: 142)-A] (H-ACDWVWEYDCWLPCA-NH2; linker 2-10-14 via TATA; N-terminus and C-terminus assumed)
Kd: 460 nM

SMILES: CC(C)C[C@@H]1NC(=O)[C@H](Cc2c[nH]c3ccccc23)NC(=O)[C@@H]2CSCCC(=O)N3CN(CN(C3)C(=O)CCSC[C@H](NC(=O)CNC(=O)[C@H](CC(=O)O)NC(=O)[C@H](C)N)C(=O)N[C@@H](CCC(=O)O)C(=O)N[C@@H](Cc3c[nH]c4ccccc34)C(=O)N[C@@H](CC(N)=O)C(=O)N[C@@H](Cc3c[nH]c4ccccc34)C(=O)N[C@@H](C)C(=O)N[C@@H](Cc3ccc(O)cc3)C(=O)N[C@@H](CC(=O)O)C(=O)N2)C(=O)CCSC[C@@H](C(=O)N[C@@H](C)C(N)=O)NC(=O)CNC1=O [Example 201, ADG-(SEQ ID NO: 146)-A] (H-ADGCEWNWAYDCWLGCA-NH2; linker 4-12-16 via TATA; N-terminus and C-terminus assumed)
Kd: 170 nM

SMILES: CSCC[C@@H]1NC(=O)[C@H](Cc2c[nH]c3ccccc23)NC(=O)[C@H](CCCCN)NC(=O)[C@@H](NC(=O)[C@@H](NC(=O)[C@H](CCC(=O)O)NC(=O)[C@H](C)N)[C@@H](C)O)CSCCC(=O)N2CN3CN(C2)C(=O)CCSC[C@H](NC(=O)[C@H](CC(=O)O)NC(=O)[C@H](Cc2ccc(O)cc2)NC(=O)[C@H](CCC(=O)O)NC(=O)[C@H](Cc2c[nH]c4ccccc24)NC1=O)C(=O)N[C@@H](Cc1c[nH]c2ccccc12)C(=O)N[C@@H](CC(C)C)C(=O)N[C@@H](CO)C(=O)N[C@H](C(=O)N[C@@H](C)C(N)=O)CSCCC3=O [Example 204, AET-(SEQ ID NO: 149)-A] (H-AETCKWMWEYDCWLSCA-NH2; linker 4-12-16 via TATA; N-terminus assumed)
Kd: 100 nM
